According to patent US7169789B2 (Kirin Beer Kabushiki Kaisha, priority 1999, dated 2007):
Like-named read-outs stand apart in the source and are kept apart here.

Experiments:
[1] = tested on: activation of MAPK within vascular endothelial cells induced by VEGF stimulation; experiment: Inhibitory activity against activation of MAPK within vascular endothelial cells induced by VEGF stimulation; format: cell-based; details: human funicular venous vascular endothelial cells, VEGF 50 ng/ml, phosphorylated MAPK by immunoblotting
Outline: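 Serum-starved (0.5% FCS, 24 h) human umbilical vein endothelial cells pretreated with compound 1 h at 37 °C, then stimulated with 50 ng/ml recombinant human VEGF for 8 min.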

[2] = tested on: A375 human melanoma cells; experiment: Karyomorphosis test; format: cell-based; details: test compound 10 μM and 1 μM, 48 hr, nuclei stained with propidium iodide
Description: A375 human melanoma cells (2×10^4) (obtained from Japanese Foundation for Cancer Research) were incolulated on a culture slide (manufactured by Falcon) and were cultured at 37° C. After the elapse of 5 hr from the initiation of the cultivation, the test compound was added to 10 μM and 1 μM, and the cultivation was continued for additional 48 hr. After the fixation of cells, 50 μg/ml propidium iodide solution containing ribonuclease (200 μg/ml) was added to stain nuclei. The stained nuclei were observed under a fluorescent microscope to analyze the nuclei for abnormality of karyomorphosis.

Human glioma cells GL07 = experiment: Antitumor effect on human glioma cells (GL07) transplanted into nude mice; format: in vivo; details: 20 mg/kg once a day for 9 days; for inhibition in vivo at 20 mg/kg: Mus musculus, Glioma cell, 216 h, read-out: TGIR, % (tumor growth inhibition rate)
Outline: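 GL07 xenografts in nude mice, grouped (n=4) at ~100 mm^3 tumor volume. Test compound 20 mg/kg p.o. or i.p. once daily for 9 days; vehicle controls. TGIR = (1−Tx/Cx)×100 from tumor volumes normalized to day-of-start volume = 1.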

| SMILES | IC50 ([1]; Endothelial cell) [nM] | IC50 [1] [nM] | Change in morphosis [2] | inhibition in vivo at 20 mg/kg (Human glioma cells GL07; ip, GL07, intraperitoneal) [%] | inhibition in vivo at 20 mg/kg (Human glioma cells GL07; GL07, oral) [%] | TGIR, % (tumor growth inhibition rate) (Human glioma cells GL07; GL07, oral) [%] | TGIR, % (tumor growth inhibition rate) (Human glioma cells GL07; GL07, intraperitoneal) [%] |
| --- | --- | --- | --- | --- | --- | --- | --- |
| COc1cc2nccc(Oc3ccc(NC(=O)Nc4ccc(F)cc4C)c(Cl)c3)c2cc1OC [Example 14, N-{2-Chloro-4-[(6,7-dimethoxy-4-quinolyl)oxy]phenyl}-N′-(4-fluoro-2-methylphenyl)urea] | 0.7 | – | (−) (the change in karyomorphosis of cells did not take place at 10 μM) | 81 | – | – | – |
| COc1cc2nccc(Oc3ccc(NC(=O)Nc4ccc(Br)cn4)c(C)c3C)c2cc1OC [Example 29, N-(5-Bromo-2-pyridyl)-N′-{4-[(6,7-dimethoxy-4-quinolyl)oxy]-2,3-dimethylphenyl}urea] | 4.4 | – | (−) (the change in karyomorphosis of cells did not take place at 10 μM) | – | 64 | – | – |
| COc1cc2nccc(Oc3ccc(NC(=O)Nc4ccc(F)cc4F)c(C)c3C)c2cc1OC [Example 24, N-(2,4-Difluorophenyl)-N′-{4-[(6,7-dimethoxy-4-guinolyl)oxy]-2,3-dimethylphenyl}urea] | – | 0.6 | (−) (the change in karyomorphosis of cells did not take place at 10 μM) | – | – | 63 | – |
| COc1cc2nccc(Oc3ccc(NC(=O)Nc4ccc(F)cc4C)c(C)c3C)c2cc1OC [Example 25, N-{4-[(6,7-Dimethoxy-4-guinolyl)oxy]-2,3-dimethylphenyl}-N′-(4-fluoro-2-methylphenyl)urea] | – | 3.9 | (−) (the change in karyomorphosis of cells did not take place at 10 μM) | – | – | – | 68 |
| CCCNC(=O)Nc1ccc(Oc2ccnc3cc(OC)c(OC)cc23)cc1Cl [Example 13, N-{2-chloro-4-[(6,7-dimethoxy-4-quinolyl)oxy]-phenyl}-N′-propylurea] | 2.2 | – | (−) (the change in karyomorphosis of cells did not take place at 10 μM) | 52 | – | – | – |
| COc1cc2nccc(Oc3ccc(NC(=O)Nc4ccc(Br)cn4)c(Cl)c3)c2cc1OC [Example 17, N-(5-Bromo-2-pyridyl)-N′-{2-chloro-4-[(6,7-dimethoxy-4-guinolyl)oxy]phenyl}urea] | – | 11 | (−) (the change in karyomorphosis of cells did not take place at 10 μM) | – | – | – | 85 |
| COCCOc1cc2nccc(Oc3cc(C)c(NC(=O)Nc4ccccc4OC)cc3C)c2cc1OC [Example 59, N-(4-{[6-Methoxy-7-(2-methoxyethoxy)-4-quinolyl]oxy}-2,5-dimethylphenyl)-N′-(2-methoxyphenyl)-urea] | 5.8 | – | (−) (the change in karyomorphosis of cells did not take place at 10 μM) | – | – | – | – |
| COc1cc2c(Oc3cc(C)c(NC(=O)Nc4ccc(F)cc4F)cc3C)ccnc2cc1OCCN1CCOCC1 [Example 52, N-(2,4-Difluorophenyl)-N′-(4-{[6-methoxy-7-(2-morpholinoethoxy)-4-guinolyl]oxy}-2,5-dimethylphenyl)urea] | – | 4.4 | (−) (the change in karyomorphosis of cells did not take place at 10 μM) | – | – | – | – |
| COc1cc2nccc(Oc3ccc(NC(=O)Nc4ccc(Cl)cn4)c(C)c3C)c2cc1OC [Example 28, N-(5-Chloro-2-pyridyl)-N′-{4-[(6,7-dimethoxy-4-guinolyl)oxy]-2,3-dimethylphenyl}urea] | – | 4 | (−) (the change in karyomorphosis of cells did not take place at 10 μM) | – | – | – | 84 |
| CCCNC(=O)Nc1ccc(Oc2ncnc3cc(OC)c(OC)cc23)cc1Cl [Example 62, N-{2-chloro-4-[(6,7-dimethoxy-4-quinazolinyl)-oxy]phenyl}-N′-propylurea] | 16 | – | (−) (the change in karyomorphosis of cells did not take place at 10 μM) | – | 78 | – | – |
| COc1cc2nccc(Oc3ccc(NC(=O)Nc4ccc(Cl)cc4C)c(C)c3C)c2cc1OC [Example 32, N-(4-Chloro-2-methylphenyl)-N′-{4-[(6,7-dimethoxy-4-guinolyl)oxy]-2,3-dimethylphenyl}urea] | – | 7.3 | (−) (the change in karyomorphosis of cells did not take place at 10 μM) | – | – | – | – |
| COc1cc2nccc(Oc3ccc(NC(=O)Nc4ccccn4)c(C)c3C)c2cc1OC [Example 33, N-{4-[(6,7-Dimethoxy-4-guinolyl)oxy]-2,3-dimethylphenyl}-N′-(2-pyridyl)urea] | – | 3.5 | (−) (the change in karyomorphosis of cells did not take place at 10 μM) | – | – | – | – |
| COc1ccc(NC(=O)Nc2ccc(Oc3ccnc4cc(OC)c(OC)cc34)c(C)c2C)cc1 [Example 36, N-{4-[(6,7-Dimethoxy-4-guinolyl)oxy]-2,3-dimethylphenyl}-N′-(4-methoxyphenyl)urea] | – | 3.3 | (−) (the change in karyomorphosis of cells did not take place at 10 μM) | – | – | – | – |
| COc1ccccc1NC(=O)Nc1cc(C)c(Oc2ccnc3cc(OCCN4CCOCC4)c(OC)cc23)cc1C [Example 53, N-(4-{[6-Methoxy-7-(2-morpholinoethoxy)-4-quinolyl]oxy}-2,5-dimethylphenyl)-N′-(2-methoxyphenyl)urea] | 5.9 | – | (−) (the change in karyomorphosis of cells did not take place at 10 μM) | – | – | – | – |
| COc1cc2nccc(Oc3ccc(NC(=O)Nc4ccc(C)cn4)c(C)c3C)c2cc1OC [Example 34, N-{4-[(6,7-Dimethoxy-4-guinolyl)oxy]-2,3-dimethylphenyl}-N′-(5-methyl-2-pyridyl)urea] | – | 4.2 | (−) (the change in karyomorphosis of cells did not take place at 10 μM) | – | – | – | – |
| COc1ccc(NC(=O)Nc2cc(C)c(Oc3ccnc4cc(OC)c(OC)cc34)cc2C)cc1 [Example 46, N-{4-[(6,7-Dimethoxy-4-quinolyl)oxy]-2,5-dimethylphenyl}-N′-(4-methoxyphenyl)urea] | 4.3 | – | (−) (the change in karyomorphosis of cells did not take place at 10 μM) | – | – | – | – |

Further lines, with some results ahead:

| IC50 ([1]; Endothelial cell) [nM] | IC50 [1] [nM] | SMILES | Change in morphosis [2] | inhibition in vivo at 20 mg/kg (Human glioma cells GL07; ip, GL07, intraperitoneal) [%] | inhibition in vivo at 20 mg/kg (Human glioma cells GL07; GL07, oral) [%] | TGIR, % (tumor growth inhibition rate) (Human glioma cells GL07; GL07, oral) [%] | TGIR, % (tumor growth inhibition rate) (Human glioma cells GL07; GL07, intraperitoneal) [%] |
| --- | --- | --- | --- | --- | --- | --- | --- |
| 2.3 | – | COc1cc2nccc(Oc3cc(C)c(NC(=O)Nc4ccc(F)cc4F)cc3C)c2cc1OC [Example 37, N-(2,4-Difluorophenyl)-N′-{4-[(6,7-dimethoxy-4-quinolyl)oxy]-2,5-dimethylphenyl}urea] | (−) (the change in karyomorphosis of cells did not take place at 10 μM) | 70 | – | – | – |
| 2.9 | – | COc1cc2nccc(Oc3ccc(NC(=O)Nc4ccc(Cl)cn4)c(Cl)c3)c2cc1OC [Example 16, N-{2-Chloro-4-[(6,7-dimethoxy-4-quinolyl)oxy]phenyl}-N′-(5-chloro-2-pyridyl)urea] | (−) (the change in karyomorphosis of cells did not take place at 10 μM) | 77 | – | – | – |
| 0.5 | – | COc1cc2nccc(Oc3ccc(NC(=O)Nc4ccc(F)cc4F)c([N+](=O)[O-])c3)c2cc1OC [Example 48, N-(2,4-Difluorophenyl)-N′-{4-[(6,7-dimethoxy-4-quinolyl)oxy]-2-nitrophenyl}urea] | (−) (the change in karyomorphosis of cells did not take place at 10 μM) | 90 | – | – | – |
| 0.6 | – | COc1ccccc1NC(=O)Nc1ccc(Oc2ccnc3cc(OC)c(OC)cc23)cc1Cl [Example 18, N-{2-Chloro-4-[(6,7-dimethoxy-4-quinolyl)oxy]phenyl}-N′-(2-methoxyphenyl)urea] | (−) (the change in karyomorphosis of cells did not take place at 10 μM) | – | 57 | – | – |
| 4.3 | – | COc1cc2nccc(Oc3c(Cl)cc(NC(=O)Nc4ccc(F)cc4F)cc3Cl)c2cc1OC [Example 49, N-{3,5-Dichloro-4-[(6,7-dimethoxy-4-quinolyl)oxy]phenyl}-N′-(2,4-difluorophenyl)urea] | (−) (the change in karyomorphosis of cells did not take place at 10 μM) | – | – | – | – |
| 2 | – | COc1ccc(NC(=O)Nc2cc(C)c(Oc3ccnc4cc(OC)c(OC)cc34)cc2C)c(OC)n1 [Example 45, N-(2,6-Dimethoxy-3-pyridyl)-N′-{4-[(6,7-dimethoxy-4-quinolyl)oxy]-2,5-dimethylphenyl}urea] | (−) (the change in karyomorphosis of cells did not take place at 10 μM) | – | – | – | – |
| – | 4 | CCCNC(=O)Nc1ccc(Oc2ccnc3cc(OC)c(OC)cc23)cc1[N+](=O)[O-] [Example 47, N-{4-[(6,7-Dimethoxy-4-guinolyl)oxy]-2-nitrophenyl}-N′-propylurea] | (−) (the change in karyomorphosis of cells did not take place at 10 μM) | – | – | – | – |
